Assay results as given in patent publication US7947726B2, “Non-steroidal ligands for the glucocorticoid receptor, and compositions thereof” (The Regents of the University of California, priority 2002, dated 2011).
Where “and” joins values, the source holds several entries; their conditions need not be identical. Equal values may be shown once. Read-outs that look alike come from different tables or passages of the source.

Key:
Format in all cases: cell-based
GR [1] = target: T1, GR (Homo sapiens, UniProt P04150); test: GRE (TAT3-Luc) activation luciferase assay in CV-1 cells transfected with GR
T1 construct: expressed in transfected cells; host or cells: CV-1 cells, transient transfection (plasmid a gift of Keith Yamamoto, UCSF)
T1 sequence (P04150 1-777): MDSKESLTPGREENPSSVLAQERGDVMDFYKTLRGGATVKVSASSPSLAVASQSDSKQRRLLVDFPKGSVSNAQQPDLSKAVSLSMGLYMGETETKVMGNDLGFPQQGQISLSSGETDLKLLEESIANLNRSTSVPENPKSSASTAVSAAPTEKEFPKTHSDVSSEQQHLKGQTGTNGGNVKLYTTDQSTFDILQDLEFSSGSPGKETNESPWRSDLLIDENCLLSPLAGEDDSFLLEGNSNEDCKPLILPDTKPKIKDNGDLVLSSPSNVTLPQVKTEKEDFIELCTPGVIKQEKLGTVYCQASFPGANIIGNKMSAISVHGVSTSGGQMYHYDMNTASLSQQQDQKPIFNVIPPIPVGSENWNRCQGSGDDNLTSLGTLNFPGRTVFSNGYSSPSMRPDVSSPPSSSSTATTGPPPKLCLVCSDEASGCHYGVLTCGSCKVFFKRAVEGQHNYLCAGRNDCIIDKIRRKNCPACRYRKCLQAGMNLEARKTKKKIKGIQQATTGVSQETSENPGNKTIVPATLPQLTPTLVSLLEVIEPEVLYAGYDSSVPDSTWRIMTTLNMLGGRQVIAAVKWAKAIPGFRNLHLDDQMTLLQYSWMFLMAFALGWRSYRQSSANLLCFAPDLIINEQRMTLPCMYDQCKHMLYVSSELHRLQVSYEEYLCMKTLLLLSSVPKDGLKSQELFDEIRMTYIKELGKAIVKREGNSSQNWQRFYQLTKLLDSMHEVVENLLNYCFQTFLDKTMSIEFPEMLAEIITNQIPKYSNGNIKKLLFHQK
Description: Cells were plated into tissue culture treated, 96 well flat bottom plates (25,000 cells/well), and incubated for 12 h at 37° C. Cells were then transfected using the Lipofectamine PLUS transfection reagent (Gibco BRL). DNA-lipid complexes of 5 ng GR, 50 ng TAT3-Luc, 7.5 ng β-galactosidase, 1 μL-well PLUS reagent and 0.67 μL-well lipofectamine in 50 μL/well serum free media were added to cells and incubated for 4 h at 37° C. Complexes were removed and hormones diluted in 5% charcoal-stripped FBS were added to the cells, which were then incubated for 24 hours at 37° C. Media was removed and the cells were washed with 100 μL Ca^+2, Mg^+2 free phosphate buffered saline (PBS). Lysis was achieved by adding 50 μL of Passive Lysis Buffer (Promega Corp, Madison, Wis.) and shaking the plate for 15 min. 15 μL of this lysate was then used to assay β-galactosidase activity (β-galactosidase enzyme assay system, Promega Corp., recommended procedures followed). The Luciferase Assay System (Promega Corp.) was used to assay luciferase activity. 100 μL of luciferase assay reagent was added rapidly to the plate and luminescence was measured for 10 ms/well on an Analyst AD Detection System (LJL Biosystems, Sunnyvale, Calif.).

GR [2] = target: T2, GR (Rattus norvegicus, UniProt P06536); test: AP-1 repression luciferase assay in U2OS cells stably transfected with rat GR; conditions: Table 5, TPA-stimulated U2OS cells; for EC50: read-out: Repression AP-1 pot (EC50); for Emax: U2OS, 12 h, read-out: Repression AP-1 % max repression
T2 construct: expressed in transfected cells; gift of Keith Yamamoto
T2 sequence (P06536 1-795): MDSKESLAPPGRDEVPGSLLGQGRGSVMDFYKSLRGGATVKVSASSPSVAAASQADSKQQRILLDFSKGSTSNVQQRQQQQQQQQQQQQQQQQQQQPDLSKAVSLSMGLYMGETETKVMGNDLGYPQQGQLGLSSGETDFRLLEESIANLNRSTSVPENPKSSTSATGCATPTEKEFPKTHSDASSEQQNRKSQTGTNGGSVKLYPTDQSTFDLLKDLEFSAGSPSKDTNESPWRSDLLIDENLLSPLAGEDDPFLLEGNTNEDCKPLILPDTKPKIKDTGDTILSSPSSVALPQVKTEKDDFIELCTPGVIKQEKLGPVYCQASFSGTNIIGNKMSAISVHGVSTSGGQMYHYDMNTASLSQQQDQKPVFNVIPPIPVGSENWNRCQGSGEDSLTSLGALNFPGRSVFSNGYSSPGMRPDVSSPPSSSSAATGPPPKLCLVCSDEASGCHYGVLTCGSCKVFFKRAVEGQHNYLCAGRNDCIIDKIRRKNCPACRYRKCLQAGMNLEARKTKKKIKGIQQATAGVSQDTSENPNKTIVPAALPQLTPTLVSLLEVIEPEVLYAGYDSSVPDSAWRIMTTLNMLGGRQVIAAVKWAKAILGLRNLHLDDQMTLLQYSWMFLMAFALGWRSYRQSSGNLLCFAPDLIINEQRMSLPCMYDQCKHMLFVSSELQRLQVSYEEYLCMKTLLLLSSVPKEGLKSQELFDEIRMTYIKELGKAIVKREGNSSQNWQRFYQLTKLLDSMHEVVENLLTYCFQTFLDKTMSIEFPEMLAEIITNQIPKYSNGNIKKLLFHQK
Description: For API repression assays, U2OS cells stably transfected with rat GR were grown in similar media as for CV-1 cells with the exception of the FBS concentration, which was 10% and the only antibiotic was […]. Cells were plated and transfected in a similar fashion, except for plasmids, which in this case were 50 ng/well AP1-Luc and 10 ng/well β-galactosidase. Post-transfection, cells were incubated with either 50 ng/mL TPA (Phorbol 12-myristate 13-acetate), or 50 ng/mL TPA and various hormone dilutions in 10% charcoal treated FBS media. The cells were incubated for 12 h, and the lysis, β-galactosidase assay, and luciferase assay were performed as previously described.

Coll A = Coll A repression; conditions: Table 5; for Emax: read-out: Repression Coll A % max repression; for EC50: read-out: Repression Coll A pot (EC50)
[3] = Table 4, read-out: GR pot (EC50)

| EC50 (GR [1]; Table 1, read-out: GR pot(EC50)) [nM] | GRE activation max fold activation (GR [1]; Table 4) | EC50 (GR [1]; [3]) | EC50 (GR [2]) | Emax (GR [2]) [%] | EC50 (Coll A) [nM] | SMILES | Emax (Coll A) [%] |
| --- | --- | --- | --- | --- | --- | --- | --- |
| 125 | 95 ± 23 | 130 ± 43 nM | 6 nM | 77 | 6.9 | Cc1cc(O)cc(C)c1C(O)C1CCCC2=Cc3c(cnn3-c3ccc(F)cc3)CC21C (stereo not shown) [Compound 227, 4-{[1-(4-Fluoro-phenyl)-4a-methyl-4,4a,5,6,7,8-hexahydro-1H-benzo[f]indazol-5-yl]-hydroxy-methyl}-3,5-dimethyl-phenol] | 75 |
|  | 92 ± 18 | 149 ± 91 nM | 4.9 nM | 80 | 8.1 | CC12Cc3cnn(-c4ccc(F)cc4)c3C=C1CCCC2C(O)c1cccc2[nH]ccc12 (stereo not shown) [Compound 237, [1-(4-Fluoro-phenyl)-4a-methyl-4,4a,5,6,7,8-hexahydro-1H-benzo[f]indazol-5-yl]-(1H-indol-4-yl)-methanol] | 75 |
|  | 86 ± 4 and 112 ± 75 | 251 nM and 230 nM | 19.1 nM and 14.7 nM | 75 | 27 | CC12Cc3cnn(-c4ccc(F)cc4)c3C=C1CCCC2C(O)c1ccsc1 (stereo not shown) [Compound 238, [1-(4-Fluoro-phenyl)-4a-methyl-4,4a-5,6,7,8-hexahydro-1H-benzo[f]indazol-5-yl]-thiophen-3-yl-methanol] | 68 |
